Experimental data as given in ChEMBL document CHEMBL6103545, “Discovery of GS-2278, a Potent and Selective LPAR1 Antagonist for the Treatment of Idiopathic Pulmonary Fibrosis” (J Med Chem, 2025).

Assays:
[1] = target: T1, Lysophosphatidic acid receptor 1 (Homo sapiens, UniProt Q92633); assay: Antagonist activity at LPA1 receptor in human TWNT-4 cells pre-incubated for 1 hr followed by LPA stimulation and measured after 30 min in presence of 4% human serum albumin by MRTF-A assay; assay type: cell-based
[2] = Toxicity in telemetry implanted Beagle dog CNS at 30 mg/kg/day, po measured upto 24 hrs by radiotelemetry based electroencephalogram analysis; assay type: organism-based, Canis lupus familiaris; settings: in vivo
[3] = target: T1, Lysophosphatidic acid receptor 1; assay: Antagonist activity at human LPA1 receptor expressed in HEK293 cells assessed as beta-arrestin2 effector recruitment incubated for 10 mins by BRET assay; assay type: functional, cell-based
[4] = Oral bioavailability in male Sprague-Dawley rat at 5 mg/kg measured after 24 hrs by LC/MS/MS analysis; assay type: ADME, organism-based; settings: in vivo
P-gp (human) [5] = assay: Apparent permeability from apical to basolateral side of human P-gp transfected MDCK cells measured after 20 min by LC/MS/MS analysis; assay type: ADME, cell-based, Canis lupus familiaris; settings: dog, MDCK-MDR1
[6] = Toxicity in Beagle dog CNS at 30 mg/kg/day, po measured after 7 days by radiotelemetry; assay type: organism-based, Canis lupus familiaris; settings: in vivo, 168 h, time 7 day
[7] = target: T2, Lysophosphatidic acid receptor 3 (Homo sapiens, UniProt Q9UBY5); assay: Antagonist activity at human LPA3 receptor overexpressed in CHO cells pre-incubated for 1 hr followed by LPA addition by fluorescence based FLIPR calcium assay; assay type: functional, cell-based
T2 sequence (Q9UBY5 whole entry): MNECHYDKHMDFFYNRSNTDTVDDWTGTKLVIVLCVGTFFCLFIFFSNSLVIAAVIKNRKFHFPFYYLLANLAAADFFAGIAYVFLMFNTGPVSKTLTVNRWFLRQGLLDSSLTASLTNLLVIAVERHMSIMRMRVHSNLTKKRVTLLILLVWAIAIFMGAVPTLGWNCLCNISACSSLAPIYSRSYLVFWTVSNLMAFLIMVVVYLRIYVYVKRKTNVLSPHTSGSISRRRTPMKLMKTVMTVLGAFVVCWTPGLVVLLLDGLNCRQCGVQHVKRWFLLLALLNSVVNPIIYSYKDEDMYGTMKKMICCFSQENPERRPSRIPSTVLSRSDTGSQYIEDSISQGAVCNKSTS

Cytochrome P450 3A = Cytochrome P450 3A (Homo sapiens, UniProt P08684+P20815+Q9HB55+P24462); assay: Inhibition of CYP3A (unknown origin) using midazolam as substrate; assay type: ADME, protein assay
[8] = AUC (0 to 24 hrs) in cynomolgus monkey at 5 mg/kg, po measured after 24 hrs by LC/MS/MS analysis; assay type: ADME, organism-based, Macaca fascicularis; settings: in vivo
Cytochrome P450 2C8 = target: T3, Cytochrome P450 2C8 (Homo sapiens, UniProt P10632); assay: Inhibition of CYP2C8 (unknown origin) using midazolam as substrate; assay type: ADME
T3 sequence (P10632 whole entry): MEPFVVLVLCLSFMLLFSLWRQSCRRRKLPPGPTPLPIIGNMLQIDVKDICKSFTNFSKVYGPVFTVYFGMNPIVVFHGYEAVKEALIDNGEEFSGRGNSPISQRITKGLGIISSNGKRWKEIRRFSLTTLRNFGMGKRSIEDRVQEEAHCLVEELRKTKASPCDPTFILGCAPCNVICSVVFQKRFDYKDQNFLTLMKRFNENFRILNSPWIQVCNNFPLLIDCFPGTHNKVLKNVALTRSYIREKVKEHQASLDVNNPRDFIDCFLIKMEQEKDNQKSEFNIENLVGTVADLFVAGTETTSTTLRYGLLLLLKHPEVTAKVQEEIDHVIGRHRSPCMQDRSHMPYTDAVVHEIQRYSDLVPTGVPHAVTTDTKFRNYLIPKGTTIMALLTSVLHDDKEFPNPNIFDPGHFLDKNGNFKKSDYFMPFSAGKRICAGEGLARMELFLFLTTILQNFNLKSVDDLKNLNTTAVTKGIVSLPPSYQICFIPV

P-gp (human) [9] = assay: Apparent permeability from basolateral to apical side of human P-gp transfected MDCK cells measured after 20 min by LC/MS/MS analysis; assay type: ADME, cell-based, Canis lupus familiaris; settings: dog, MDCK-MDR1
[10] = AUC (0 to 24 hrs) in male Sprague-Dawley rat at 5 mg/kg, po measured after 24 hrs by LC/MS/MS analysis; assay type: ADME, organism-based; settings: in vivo
BCRP (human) [11] = assay: Apparent permeability from basolateral to apical side of human BCRP transfected MDCK cells measured after 20 min by LC/MS/MS analysis; assay type: ADME, cell-based, Canis lupus familiaris; settings: dog
BCRP (human) [12] = assay: Apparent permeability from apical to basolateral side of human BCRP transfected MDCK cells measured after 20 min by LC/MS/MS analysis; assay type: ADME, cell-based, Canis lupus familiaris; settings: dog
[13] = Lipophilicity, logD of compound at pH 7.4; assay type: physicochemical; settings: buffer
[14] = Metabolic stability in male Sprague-Dawley rat liver microsomes assessed as intrinsic clearance at 1 uM by LC/MS/MS analysis; assay type: ADME, Microsome; settings: read-out: CLH (converted)
[15] = Toxicity in Beagle dog CNS at 30 mg/kg/day, po measured after 28 days by radiotelemetry; assay type: organism-based, Canis lupus familiaris; settings: in vivo, 672 h, time 28 day
[16] = target: T1, Lysophosphatidic acid receptor 1; assay: Antagonist activity at human LPA1 receptor overexpressed in CHO cells pre-incubated for 1 hr followed by LPA addition by fluorescence based FLIPR calcium assay; assay type: functional, cell-based
[17] = Half-life in male Sprague-Dawley rat at 5 mg/kg, po measured after 24 hrs by LC/MS/MS analysis; assay type: ADME, organism-based; settings: in vivo
Cytochrome P450 2D6 = Cytochrome P450 2D6 (Homo sapiens, UniProt P10635); assay: Inhibition of CYP2D6 (unknown origin) using midazolam as substrate; assay type: ADME
[18] = target: T4, Solute carrier organic anion transporter family member 1B3 (Homo sapiens, UniProt Q9NPD5); assay: Inhibition of OATPB1P3 in human hepatocyte by LC-MS analysis; assay type: cell-based
T4 sequence (Q9NPD5 whole entry): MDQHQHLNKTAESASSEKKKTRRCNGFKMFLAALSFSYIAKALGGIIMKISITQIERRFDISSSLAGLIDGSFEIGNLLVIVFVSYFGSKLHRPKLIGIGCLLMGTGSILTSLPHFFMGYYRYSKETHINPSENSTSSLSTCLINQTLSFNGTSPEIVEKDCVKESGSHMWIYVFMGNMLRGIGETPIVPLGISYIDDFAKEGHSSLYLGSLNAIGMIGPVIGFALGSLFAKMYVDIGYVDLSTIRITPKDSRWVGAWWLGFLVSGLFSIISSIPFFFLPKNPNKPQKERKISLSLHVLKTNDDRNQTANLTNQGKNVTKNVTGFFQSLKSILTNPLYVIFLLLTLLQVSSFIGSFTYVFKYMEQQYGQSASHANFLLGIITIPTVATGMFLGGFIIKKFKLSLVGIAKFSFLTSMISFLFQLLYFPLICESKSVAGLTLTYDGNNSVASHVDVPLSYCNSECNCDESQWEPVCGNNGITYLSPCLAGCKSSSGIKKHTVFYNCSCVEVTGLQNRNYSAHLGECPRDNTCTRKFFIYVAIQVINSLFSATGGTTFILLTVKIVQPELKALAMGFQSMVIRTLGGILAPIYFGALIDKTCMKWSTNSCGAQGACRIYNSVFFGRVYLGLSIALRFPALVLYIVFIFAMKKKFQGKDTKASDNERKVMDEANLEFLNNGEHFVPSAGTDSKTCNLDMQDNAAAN

[19] = Apparent permeability across apical to basolateral side in cMDR1 knockout MDCK-II cells incubated upto 240 mins by RF-QToF analysis; assay type: ADME, cell-based, Canis lupus familiaris; settings: dog

T1 sequence (Q92633 whole entry): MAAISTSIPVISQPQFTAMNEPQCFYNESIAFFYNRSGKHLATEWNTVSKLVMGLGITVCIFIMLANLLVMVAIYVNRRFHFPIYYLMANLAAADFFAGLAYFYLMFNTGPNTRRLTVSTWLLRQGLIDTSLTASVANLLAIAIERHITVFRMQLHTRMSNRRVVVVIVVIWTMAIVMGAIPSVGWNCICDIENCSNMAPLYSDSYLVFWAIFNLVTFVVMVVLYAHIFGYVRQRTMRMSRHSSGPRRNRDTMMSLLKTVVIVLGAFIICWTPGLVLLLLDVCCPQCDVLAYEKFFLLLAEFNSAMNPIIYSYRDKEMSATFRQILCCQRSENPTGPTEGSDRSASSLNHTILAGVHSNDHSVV
Cytochrome P450 2D6, sequence (P10635 whole entry): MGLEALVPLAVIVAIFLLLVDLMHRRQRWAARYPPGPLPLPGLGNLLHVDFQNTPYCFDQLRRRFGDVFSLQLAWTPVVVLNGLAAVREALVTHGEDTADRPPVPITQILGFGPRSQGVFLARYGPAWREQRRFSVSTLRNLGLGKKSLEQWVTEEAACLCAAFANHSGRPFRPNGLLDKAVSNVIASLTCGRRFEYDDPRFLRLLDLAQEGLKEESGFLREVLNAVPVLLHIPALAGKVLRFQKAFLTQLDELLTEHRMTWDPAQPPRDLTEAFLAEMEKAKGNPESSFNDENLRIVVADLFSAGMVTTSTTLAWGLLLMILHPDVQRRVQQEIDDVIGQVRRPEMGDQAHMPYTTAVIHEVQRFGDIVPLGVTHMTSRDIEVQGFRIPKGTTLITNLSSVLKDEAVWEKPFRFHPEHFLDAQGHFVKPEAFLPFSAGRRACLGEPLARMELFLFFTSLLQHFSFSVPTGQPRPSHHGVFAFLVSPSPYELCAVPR

EC50 [1]: 34 nM
EC50 [3]: 134 nM
bioavailability [4]: 40%
Papp A→B at 20 min (P-gp (human) [5]): 0.3 ×10⁻⁶ cm/s
EC50 [7]: > 10000 nM
inhibition (INH) (Cytochrome P450 3A): Not_active
AUC(0-t) at 24 h [8]: 8.9 µM·h
inhibition (INH) (Cytochrome P450 2C8): Not_active
Papp B→A at 20 min (P-gp (human) [9]): 11 ×10⁻⁶ cm/s
AUC(0-t) at 24 h [10]: 5.1 µM·h
Papp B→A at 20 min (BCRP (human) [11]): 12 ×10⁻⁶ cm/s
Papp A→B at 20 min (BCRP (human) [12]): < 0.01 ×10⁻⁶ cm/s
logD [13]: 2.7
CLint scaled at 1 µM [14]: 16.3 mL/min/kg
EC50 [16]: 38 nM
half-life [17]: 3.9 h
inhibition (INH) (Cytochrome P450 2D6): Not_active
IC50 [18]: 15000 nM
SMILES: C[C@@H](OC(=O)Nc1c(-c2ccc(NC(=O)c3cnc(C(F)(F)F)nc3)cn2)nnn1C)c1cc(F)cnc1F
Activity [2]: Non-toxic
Activity [6]: Non-toxic
Activity [15]: Non-toxic
Papp A→B at 4 h [19]: 11 ×10⁻⁶ cm/s
